Test results reported in PMC8231556, “Inhibiting Endothelial Cell Function in Normal and Tumor Angiogenesis Using BMP Type I Receptor Macrocyclic Kinase Inhibitors” (Cancers, 2021).

How the values were obtained:
[1] = tested on: HUVECs; experiment: Chemotactic invasion assay; type: cell-based, human; details: 0.5 µM, towards full medium with 20% FBS
Method: The invasion potential of ECs was investigated using the chemotactic invasion assay, according to the IncuCyte instruction manual. Briefly, the top layer of an IncuCyte ClearView 96-well chemotaxis plate (4582, Essen Bioscience) was coated with 1% gelatin for 30 min. One thousand five hundred HUVEC cells/well were seeded on the gelatin-coated top plate and covered with 60 µL M199 medium with 1% FBS containing 0.5 µM of the indicated compounds or vehicle control (DMSO). Then 200 µL/well of M199 supplemented with 20% FBS, 100 IU/mL penicillin/streptomycin, 0.01 IU/mL Heparine, and BPE with 0.5 µM of the indicated compounds was added to the bottom plate. The plate was placed in the IncuCyte, and whole well images of both top and bottom membranes were captured every 4 h for one day using the IncuCyte Chemotaxis imaging protocol. Finally, the top and bottom cell areas were quantified with the instrument’s software using automated algorithms. The ECs invasive behavior was presented as total bottom cell area normalized to the initial top cell area. All the experiments were repeated at least three times, and representative results are shown.

[2] = target: ACVR2A (Homo sapiens, UniProt P27037); experiment: radiometric protein kinase assay, affinity (Kd); type: binding
Method: The binding interaction profile of the compounds for ALK1–6, ACVR2A, ACVR2B, and TGFβR2 was determined by using radiometric protein kinase assay. For each compound, ten different concentrations (from 3 × 10^−6 M to 9 × 10^−11 M) were used in the protein kinase reaction. The inhibitor binding constants (Kd values) were calculated based on the 10 corresponding residual activities for each compound using Prism 5.04 (Graphpad, San Diego, CA, USA) according to the following formula:Kd = ([K][I]/[C]) where [K] = molar concentration of non-inhibitor bound kinase at equilibrium, [I] = molar concentration of the free inhibitor at equilibrium, [C] = molar concentration of kinase-inhibitor complex at equilibrium.

[3] = tested on: TGF-β2-induced SMAD2 phosphorylation; experiment: Western blot of TGF-β2-induced SMAD2 phosphorylation in EA.hy926 cells; type: cell-based, human; details: TGF-β2 1 ng/mL
Method: EA.hy926 cells or HUVECs were seeded in 6-well plates and starved in a serum-free medium for 4 h after reaching 80% confluence. The compounds were added 30 min prior to stimulation with the corresponding ligands. EA.hy926 cells were incubated with BMP9 (1 ng/mL), BMP6 (50 ng/mL), TGF-β2 (1 ng/mL), or vehicle control for 1 h. For HUVECs, after 4 h starvation, the cells were pre-treated with or without the indicated compounds for 30 min and subsequently stimulated with VEGF (40 ng/mL) for 10 min. The cells were harvested and lysed in radioimmunoprecipitation assay (RIPA) lysis buffer containing 1× complete protease inhibitor cocktail (11836153001, Roche, Basel, Switzerland). The protein concentration was determined using the DC protein assay kit (5000111, Bio-Rad). After adding loading buffer, the samples were boiled and proteins separated by sodium dodecyl sulfate polyacrylamide gel electrophoresis (SDS-PAGE). Proteins in the gel were transferred to polyvinylidene difluoride (PVDF) membranes (IPVH00010, Merck Millipore, Burlington, MA, USA) and immunoblotted with 1000 times diluted primary antibodies: phospho-SMAD1/5 (9516 S, Cell Signaling Technology, Leiden, The Netherlands), phospho-SMAD2 (pSMAD2, home-made), SMAD1 (6944 S, Cell Signaling Technology), SMAD2 (3103 S, Cell Signaling Technology), phospho-extracellular signal-regulated kinase/mitogen-activated protein kinase (pERK/MAPK, 4370, Cell Signaling Technology), mitogen-activated protein kinase/ERK1/2 (ERK1/2/MAPK, 9102 S, Cell Signaling Techonol), VEGFR (2479, Cell Signaling), pVEGFR (2478, Cell Signaling Technology), α/β-Tubulin (2148, Cell Signaling Technology), glyceraldehyde 3-phosphate dehydrogenase (GAPDH, MAB374, Merck Millipore). Clarity™ enhanced chemiluminescence (ECL) reagent (1705060, Bio-Rad) was used to visualize secondary antibodies conjugated to horseradish peroxidase (HRP). GAPDH or Tubulin was used as protein loading controls. […] The protein bands were quantified using ImageJ (National Institutes of Health, Bethesda, MD, USA).

[4] = target: TGFBR2 (Homo sapiens, UniProt P37173); experiment: radiometric protein kinase assay, affinity (Kd); type: binding
Method: The binding interaction profile of the compounds for ALK1–6, ACVR2A, ACVR2B, and TGFβR2 was determined by using radiometric protein kinase assay. For each compound, ten different concentrations (from 3 × 10^−6 M to 9 × 10^−11 M) were used in the protein kinase reaction.

[5] = tested on: HUVECs; experiment: Cord formation assay, HUVEC-eGFP co-cultured with human dermal fibroblasts; type: cell-based; details: for effect on VEGF-induced EC cord formation: VEGF 15 ng/mL, 6 days, 0.5 µM (Sunitinib 1 μM); for effect on VEGF-induced cord length, different concentrations: dose range
Method: The cord formation assay was performed according to the IncuCyte Angiogenesis PrimeKit Assay protocol (Cell Player Angiogenesis PrimeKit, Essen BioScience). In brief, GFP labeled HUVEC cells and human dermal fibroblasts were mixed in a 1:20 ratio and seeded per well in a 96-well plate (3150 cells in total). Thereafter, the cells were exposed to VEGF alone or in combination with the compounds (at indicated concentrations) in a complete assay medium. Pictures were captured every 6 h for up to 9 days To monitor the cord formation. The medium was refreshed every 2 or 3 days. Cords formation was visualized by the GFP fluorescence, and cord length was quantified with the instrument’s software. All the experiments were repeated at least three times, and representative experiments are shown.

[6] = tested on: VEGF-induced DLL4 and NR4 A1 mRNA expression; experiment: RT-qPCR of VEGF-induced DLL4 and NR4A1 mRNA in HUVECs; type: cell-based, human; details: 0.5 µM compound, VEGF 40 ng/mL
Method: EA.hy926 cells or HUVECs were seeded in 6-well plates and cultured until they reached 80% confluence. The medium was replaced with a serum-free medium for a 4 h starvation. For EA.hy926 cells, the compounds were added at a final concentration of 0.5 μM for 30 min, followed by BMP9 (1 ng/mL), TGF-β2 (1 ng/mL), or vehicle control addition and cultured for another 3 h before the cells were harvested. To investigate VEGF-induced cellular response, HUVECs were exposed to VEGF (40 ng/mL) for 1 h after 30 min pre-treatment with the compounds.
After samples were collected, total RNA was isolated and purified using the NucleoSpin RNA II kit (740955, BIOKE, Leiden, the Netherlands), following the manufacturer’s instructions. Then, the mRNA was used as a template to synthesize cDNA by performing reverse transcription with the RevertAid First Strand cDNA Synthesis Kit (K1621, ThermoFisher Scientific). Gene expression levels were determined by RT-qPCR analysis using the GoTaq qPCR Master Mix (A6001, Promega, Madison, WI, USA) and normalized to GAPDH expression. All the experiments were repeated three times, and results from three biologically independent experiments are shown.

TGFBR2, sequence (P37173 23-567): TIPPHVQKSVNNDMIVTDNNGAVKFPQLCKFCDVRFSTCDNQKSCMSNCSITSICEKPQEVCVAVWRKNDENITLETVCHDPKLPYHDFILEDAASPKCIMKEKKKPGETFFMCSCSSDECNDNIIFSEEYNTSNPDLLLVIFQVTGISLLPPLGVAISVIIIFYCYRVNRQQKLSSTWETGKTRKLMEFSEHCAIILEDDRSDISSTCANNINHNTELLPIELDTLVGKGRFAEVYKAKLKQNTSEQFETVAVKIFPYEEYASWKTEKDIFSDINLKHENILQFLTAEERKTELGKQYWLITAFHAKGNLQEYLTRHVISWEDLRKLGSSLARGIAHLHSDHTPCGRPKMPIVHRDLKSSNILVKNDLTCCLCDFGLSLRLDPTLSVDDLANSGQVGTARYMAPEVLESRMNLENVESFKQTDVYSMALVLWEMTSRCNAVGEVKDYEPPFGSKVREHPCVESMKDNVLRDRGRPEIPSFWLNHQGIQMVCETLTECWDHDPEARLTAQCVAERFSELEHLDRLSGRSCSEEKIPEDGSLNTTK
ACVR2A, sequence (P27037 20-513): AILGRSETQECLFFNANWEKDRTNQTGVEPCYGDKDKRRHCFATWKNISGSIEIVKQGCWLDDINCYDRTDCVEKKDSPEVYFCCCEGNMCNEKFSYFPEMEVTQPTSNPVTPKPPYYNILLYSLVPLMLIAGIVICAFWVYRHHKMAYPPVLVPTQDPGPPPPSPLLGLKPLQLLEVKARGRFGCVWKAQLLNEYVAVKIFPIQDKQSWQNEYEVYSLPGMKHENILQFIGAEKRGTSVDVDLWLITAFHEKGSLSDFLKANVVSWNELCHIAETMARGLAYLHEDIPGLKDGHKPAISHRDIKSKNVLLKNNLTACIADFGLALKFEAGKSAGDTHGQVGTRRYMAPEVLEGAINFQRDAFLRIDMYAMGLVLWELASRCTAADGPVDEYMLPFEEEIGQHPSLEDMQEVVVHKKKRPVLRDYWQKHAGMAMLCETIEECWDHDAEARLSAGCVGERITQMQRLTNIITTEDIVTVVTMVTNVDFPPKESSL

SMILES	effect on HUVEC chemotactic invasion [1]	Kd [2] [nM]	effect on TGF-β2-induced SMAD2 phosphorylation ([3]; dose range)	Kd [4] [nM]	effect on VEGF-induced EC cord formation [5]	effect on VEGF-induced cord formation at 0.1 μM ([5]; VEGF 20 ng/mL, 9 days, 0.1 μM)	effect on VEGF-induced cord length, different concentrations ([5]; VEGF 20 ng/mL, 9 days)	effect on VEGF-induced DLL4 mRNA expression [6]	effect on VEGF-induced NR4 A1 mRNA expression [6]	effect on VEGF-induced cord formation at 0.5 μM ([5]; VEGF 20 ng/mL, 9 days, 0.5 μM)	effect on TGF-β2-induced SMAD2 phosphorylation ([3]; 0.1 µM compound)
CN1CCC(=O)NCCNc2ccn3ncc(c3n2)-c2cccc(c2)C1 [OD29]	similarly blocked	1240	nearly no inhibitory effect	76	antagonized	effectively attenuated	antagonized in a dose-dependent manner	inhibited	inhibited	–	–
CN1CCc2cccc(c2)Nc2nccc(n2)N2CCCc3cc(ccc32)C1 [OD16]	similarly blocked	110	in a dose-dependent manner but far less efficiently than LDN-193189	380	antagonized	–	antagonized in a dose-dependent manner	did inhibit	–	apparent inhibitory effects	–
c1ccc2c(-c3cnn4cc(-c5ccc(N6CCNCC6)cc5)cnc34)ccnc2c1 [LDN-193189, reference compound]	significantly compromised	11	–	16	no inhibitory effect and even slightly enhanced	–	–	–	–	–	effectively attenuated
CNC(=O)c1ccccc1Sc1ccc2c(/C=C/c3ccccn3)n[nH]c2c1 [Axitinib, reference compound]	significantly compromised	–	–	–	–	–	potently inhibited	inhibited	inhibited	–	–
